Experimental data: patent US9925263B2, “Liquid pharmaceutical formulations for injection comprising procaine and uses thereof” (EAGLE BIOLOGICS, INC., priority 2013, dated 2018)

Columns and labels:
TYSABRI® = assay: Viscosity of aqueous solutions of TYSABRI® with viscosity-lowering agents; type: physicochemical; conditions: 0.25M agent, 25° C., pH 7.0
Procedure: All viscosities of well-mixed aqueous mAb solutions were measured using either a mVROC microfluidic viscometer (RheoSense) or a DV2T cone and plate viscometer (Brookfield; “C & P”) after a 5 minute equilibration at 25° C. […] The mVROC viscometer was equipped with an “A” or “B” chip, each manufactured with a 50 micron channel. Typically, 0.10 mL of protein solution was back-loaded into a gastight microlab instrument syringe (Hamilton; 100 μL), affixed to the chip, and measured at multiple flow rates, approximately 20%, 40%, and 60% of the maximum pressure for each chip. […] An average absolute viscosity and standard deviation was then calculated from at least these three measurements. The C & P viscometer was equipped with a CPE40 or CPE52 spindle (cone angle of 0.8° and 3.0°, respectively) and 0.50 mL samples were measured at multiple shear rates between 2 and 400 s^−1. Specifically, samples were measured for 30 seconds each at 22.58, 24.38, 26.25, 28.13, 30, 31.88, 45, 67.5, 90, 112.5, 135, 157.5, 180, 202.5, 247, 270, 292.5, 315, 337.5, 360, 382, 400 s^−1, starting at a shear rate that gave at least 10% torque, and continuing until instrument torque reached 100%. An extrapolated zero-shear viscosity was then determined from a plot of dynamic viscosity versus shear rate for the samples measured on a DV2T cone and plate viscometer. The extrapolated zero-shear viscosities reported are the average and standard deviation of at least three measurements.
Viscosities were measured using a RheoSense mVROC microfluidic viscometer equipped with an “A” or “B” chip.
(§3) Subsequently, the aqueous drug product was purified, buffer exchanged, concentrated, dried, reconstituted, and analyzed as described in the same manner. Viscosities reported were measured on a RheoSense mVROC microfluidic viscometer.

biosimilar ERBITUX® = assay: Viscosity of aqueous solutions of biosimilar ERBITUX® with viscosity-lowering agents; conditions: for Viscosity / Fold Reduction: pH 7.0, 0.25M agent; for Fold Reduction: vs phosphate buffer
Procedure: All viscosities of well-mixed aqueous mAb solutions were measured using either a mVROC microfluidic viscometer (RheoSense) or a DV2T cone and plate viscometer (Brookfield; “C & P”) after a 5 minute equilibration at 25° C. (unless otherwise indicated). The mVROC viscometer was equipped with an “A” or “B” chip, each manufactured with a 50 micron channel. Typically, 0.10 mL of protein solution was back-loaded into a gastight microlab instrument syringe (Hamilton; 100 μL), affixed to the chip, and measured at multiple flow rates, approximately 20%, 40%, and 60% of the maximum pressure for each chip. […] An average absolute viscosity and standard deviation was then calculated from at least these three measurements. The C & P viscometer was equipped with a CPE40 or CPE52 spindle (cone angle of 0.8° and 3.0°, respectively) and 0.50 mL samples were measured at multiple shear rates between 2 and 400 s^−1. […] An extrapolated zero-shear viscosity was then determined from a plot of dynamic viscosity versus shear rate for the samples measured on a DV2T cone and plate viscometer. The extrapolated zero-shear viscosities reported are the average and standard deviation of at least three measurements.
First, Polysorbate 80 was removed using DETERGENT-OUT® TWEEN® Medi Columns (G-Biosciences). […] The collected protein solution was freeze-dried. The dried protein cakes, containing protein and buffer salts or agent, were reconstituted to a final volume of 0.15-1.3 mL. […] Reported protein concentrations represent the range of all protein samples included in each Table or Figure. Specifically, reported values are the median plus or minus half the range. Extrapolated zero-shear using an experimentally determined extinction coefficient of 1.4 L/g·cm and viscosities reported were measured on a DV2T cone and plate viscometer.
The final concentration of CSAL upon reconstitution in an aqueous CSAL solution ranged from 0.25 M to 0.50 M.
Specifically, 20 mM solutions of the viscosity-lowering agents of interest were used for buffer exchange, and the lyophilized cakes were reconstituted to 0.25 M of each viscosity-lowering agent. […] The sample was first aliquoted. […] The dried protein cakes, containing protein and viscosity-lowering agent (and a negligible amount of buffer salts) were reconstituted to a final volume of approximately 0.10 mL and viscosity-lowering agent concentration as previously described.
First, Polysorbate was removed from the commercially obtained mAb solutions.
Specifically, 20 mM solutions of the salts of interest were used for buffer exchange, and the lyophilized cakes were reconstituted to contain 0.25 M of each agent. Viscosities were measured using either a RheoSense mVROC microfluidic viscometer equipped with an “A” or “B” chip or a DV2T cone and plate viscometer.
as §3

REMICADE® [1] = assay: Viscosity of aqueous solutions of […]® with viscosity-lowering agents; type: physicochemical
Sprague-Dawley rats = assay: Subcutaneous injection toxicity and irritation (Draize evaluation scores); type: in vivo, rat; conditions: 0.5 mL of 0.25 M CSAA subcutaneously, 1 to 3 daily injections
Procedure: Thirty 11-week old Sprague-Dawley rats were separated into 6 groups of 5 rats each (3 saline control groups and 3 CSAA groups). The rats were injected subcutaneously with 0.5 mL of either endotoxin-free phosphate-buffered saline or endotoxin-free 0.25 M CSAA according to the following schedule: One group from each condition was injected once on day 1 and then sacrificed […]; one group from each condition was injected once on day 1 and once on day 2 and then sacrificed 24 hours after the second injection; and one group from each condition was injected once on day 1, once on day 2, and once on day 3, and then sacrificed 24 hours after the third injection.
Clinical observations were recorded for any pharmaco-toxicological signs pre-dose, immediately post-dose, at 1 and 4 hours (±15 minutes) post-dose, and daily thereafter. Irritation, if any, at injection sites was scored using the Draize evaluation scores pre-dose, immediately post-dose, at 1 hour (±15 minutes) post dose, and prior to sacrifice.

biosimilar RITUXAN® = assay: Viscosity of aqueous solutions of biosimilar RITUXAN® with viscosity-lowering agents; conditions: 202 ± 2 mg/mL RITUXAN; 0.25M agent; 25° C., pH 7.0;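 note: absolute viscosity of aqueous antibody solutions determined by microfluidic viscometry (mVROC chip, 50 micron channel) at several flow rates after 5 min equilibration, mean of at least three readings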
REMICADE® [2] = assay: Syringe extrusion force of concentrated […]® solutions (Instron); type: physicochemical; conditions: 1 mL BD insulin syringe, 3 mL/min, REMICADE 224-230 mg/mL, 0.25M agent
Procedure: (§1) Following reconstitution, the viscosity of each solution was measured using the microfluidic viscometer as described in previous examples. The solutions were then back-loaded into 1 mL BD insulin syringes with 27, 29, or 31 gauge fixed needles. The force required to extrude the concentrated […]® solutions was then measured using an Instron at a rate of displacement equivalent to a fluid flow rate of 3 mL/min. The expelled solution was collected from the syringe and analyzed by size-exclusion chromatography.

VECTIBIX® = assay: Viscosity of aqueous solutions of VECTIBIX® with viscosity-lowering agents; type: physicochemical; conditions: 0.25M agent, 25° C., pH 7.0
Text: (§2) (unless otherwise indicated).

REMICADE® [3] = assay: Monomer content of […]® solutions by size exclusion chromatography; type: physicochemical; conditions: 0.25M agent
Procedure: Biophysical properties of solutions of […]® formulated with 0.25 M CSAA were assessed over 90 days. Samples of […]® formulated with 0.25 M CSAA were prepared as described in Example 1 above.
as §1

antigen = assay: Antigen binding, […]®-specific ELISA assay; conditions: storage at room temperature, CSAA sample: REMICADE 219 mg/mL, pH 7, 0.25M CSAA
Procedure: Biophysical properties of solutions of […]® formulated with 0.25 M CSAA were assessed over 90 days. Samples of […]® formulated with 0.25 M CSAA were prepared as described in Example 1 above. […] (Table 20). Additionally, antigen binding of this processed […]® protein was measured with a […]®-specific ELISA assay and no decrease in binding was seen between days 0 and […] (Table 20).

ARZERRA® = assay: Viscosity of aqueous solutions of ARZERRA® with viscosity-lowering agents; type: physicochemical; conditions: 274 ± 10 mg/mL ARZERRA; 0.25M agent; 25° C., pH 7.0
Text: as §2

REMICADE® [4] = assay: Monomer content of […]® solutions by size exclusion chromatography; type: physicochemical; conditions: storage at room temperature, CSAA sample: REMICADE 219 mg/mL, pH 7, 0.25M CSAA
HERCEPTIN® = assay: Viscosity of aqueous solutions of HERCEPTIN® with viscosity-lowering agents; type: physicochemical; conditions: 0.25M salt, 25° C., pH 7.0
biosimilar AVASTIN® = assay: Viscosity of aqueous solutions of biosimilar AVASTIN® with viscosity-lowering agents; type: physicochemical

camphorsulfonic acid arginine [CSAA] was tested, and the Viscosity (TYSABRI®; 237 ± 4 mg/mL TYSABRI) was 47.1 ± 2.1 cP, the Viscosity (TYSABRI®; 276 ± 8 mg/mL TYSABRI) was 92.9 ± 2.6 cP and the “pH of viscosity minimum” value (biosimilar ERBITUX®; 0.25 M CSAA, 202±5, 229±5, 253±4 mg/mL mAb, 25° C., FIG. 5) was ~7.0. The Viscosity (biosimilar ERBITUX®; 222 ± 5 mg/mL mAb, 25° C.) was 52.5 ± 1.0 cP, the Viscosity (biosimilar ERBITUX®; 225 ± 5 mg/mL mAb, 20° C.) was 79.6 ± 0.9 cP and the Viscosity (biosimilar ERBITUX®; 225 ± 5 mg/mL mAb, 25° C.) was 58.0 ± 0.3 cP. The Viscosity (biosimilar ERBITUX®; 225 ± 5 mg/mL mAb, 30° C.) was 46.9 ± 0.6 cP, the “Fold Reduction” value (biosimilar ERBITUX®; 222 ± 5 mg/mL mAb, 25° C.) was 21.5 fold and the “Fold Reduction” value (biosimilar ERBITUX®; 222 ± 5 mg/mL mAb, 25° C., listed as CSA Arginine) was 21.5 fold. For the same substance, the Viscosity (REMICADE® [1]; 128 mg/mL REMICADE, isotonic (0.3 molal) excipient) was 25.8 ± 0.8 cP, the Viscosity reduction (REMICADE® [1]; 0.25M agent vs PB, Table 17) was “about 29 fold” and the Viscosity (REMICADE® [1]; 166 ± 4 mg/mL REMICADE, 0.25M agent, 25° C., pH 7.0) was 19.1 ± 0.2 cP. It also gave a Viscosity (REMICADE® [1]; 215 ± 5 mg/mL REMICADE, [CSAA] 0 M, 25° C., pH 7.0) of 1557 ± 22 cP, a Viscosity (REMICADE® [1]; 215 ± 5 mg/mL REMICADE, [CSAA] 0.20 M, 25° C., pH 7.0) of 81.3 ± 1.0 cP and a Viscosity (REMICADE® [1]; 215 ± 5 mg/mL REMICADE, [CSAA] 0.25 M, 25° C., pH 7.0) of 53.7 ± 9.3 cP. The Viscosity (REMICADE® [1]; 215 ± 5 mg/mL REMICADE, [CSAA] 0.35 M, 25° C., pH 7.0) was 38.2 ± 0.9 cP, the Viscosity (REMICADE® [1]; 222 ± 6 mg/mL REMICADE, 0.25M agent, 25° C., pH 7.0) was 53.7 ± 9.3 cP and the “Microscopic examination of injection sites” value (Sprague-Dawley rats; no longer evident by day 4) was “very minor, clinically insignificant, irritative effect”. The “Observed consequences of the injections compared with saline” value (Sprague-Dawley rats; throughout the study) was “macroscopically similar”, the “Edema scores (Draize) at injection sites” value (Sprague-Dawley rats; various time points) was 0-2 and the Viscosity (biosimilar RITUXAN®) was 78.4 ± 0.3. The “Syringe Force” value (REMICADE® [2]; 27 gauge needle) was 18.4 N, the “Syringe Force” value (REMICADE® [2]; 29 gauge needle) was 24.9 N and the “Syringe Force” value (REMICADE® [2]; 31 gauge needle) was 33.0 N. For the same substance, the Viscosity (VECTIBIX®; 264 mg/mL VECTIBIX) was 44.3 ± 2.3 cP, the Viscosity (VECTIBIX®; 233 ± 4 mg/mL VECTIBIX) was 26.2 ± 6.5 cP and the Viscosity (VECTIBIX®; 252 ± 3 mg/mL VECTIBIX) was 27.4 ± 1.2 cP. The Viscosity (VECTIBIX®; 291 ± 3 mg/mL VECTIBIX) was 162 ± 1 cP, the “% Monomer” value (REMICADE® [3]; expelled through 27 gauge needle, REMICADE 224-230 mg/mL (per agent)) was 99.5 ± 0.1% and the “% Monomer” value (REMICADE® [3]; expelled through 29 gauge needle, REMICADE 224-230 mg/mL (per agent)) was 99.4 ± 0.2%. The “% Monomer” value (REMICADE® [3]; expelled through 31 gauge needle, REMICADE 224-230 mg/mL (per agent)) was 99.5 ± 0.2%, the “% Monomer” value (REMICADE® [3]; pre-syringe, REMICADE 220-230 mg/mL (per agent)) was 99.7 ± 0.3% and the “% binding (normalized to drug product)” value (antigen; day 0) was 88.6 ± 5.2%. The “% binding (normalized to drug product)” value (antigen; day 7) was 114 ± 2.4%, the Viscosity (ARZERRA®) was 125 ± 7 cP and the “% Monomer” value (REMICADE® [4]; day 0) was 99.9 ± 0.1%. The “% Monomer” value (REMICADE® [4]; day 4) was 97.9 ± 0%, the “% Monomer” value (REMICADE® [4]; day 7) was 100 ± 0% and the Viscosity (HERCEPTIN®; 216 ± 0 mg/mL HERCEPTIN) was 55.7 ± 2.3 cP. The Viscosity (HERCEPTIN®; 254 ± 3 mg/mL HERCEPTIN) was 78.0 ± 8.7 cP, the Viscosity (HERCEPTIN®; 270 ± 6 mg/mL HERCEPTIN) was 96.7 ± 4.7 cP and the Viscosity (biosimilar AVASTIN®; 200 ± 5 mg/mL mAb, pH 7.0, 25° C., [Salt] 0.25 M of anion, C & P viscometer) was 48.5 ± 1.9 cP. The “pH of minimum viscosity and maximum viscosity-lowering effect” value (biosimilar AVASTIN®; 200±9 mg/mL mAb, 0.25 M CSAA, FIG. 3) was ~7 and the Viscosity (biosimilar AVASTIN®; 228 ± 5 mg/mL mAb, agent 0.25 M, 25° C., pH 7.0) was 116 ± 2 cP.
